“Also recorded” adds a separate entry of the source.
How the values were obtained:
Format in all cases: in vivo, rat
[1] = test system: Female Wistar rats; assay: Basal sensitivity to colorectal distension model; conditions: 30 mg/kg by oral gavage; CRD measured 2 hrs later; 0-60 mmHg
[2] = test system: Female Wistar rats; assay: Partial restraint stress-induced hyperalgesia model; conditions: 30 mg/kg orally, 1 hr 15 min into 2 hr PRS; CRD 2 hrs later; 45 and 60 mmHg
Experimental: Female Wistar rats surgically prepared for electromyography as described in Example 1 were used to evaluate the effects of the FAAH inhibitors (a) compound A or (b) compound B, on colorectal sensitivity and compliance after a 2 hour partial restraint stress session.
Partial restraint stress (PRS), a relatively mild stress, was induced as previously described (Morteau et al. Dig. Dis. Sci. 1994: 39:1239-48; “Guanylate cyclase C-mediated antinociceptive effects of linaclotide in rodent models of visceral pain”, Eutamene H, Bradesi S, Larauche M, Theodorou V, Beaufrand C, Ohning G, Fioramonti J, Cohen M, Bryant A P, Kurtz C, Currie M G, Mayer E A, Bueno L, Neurogastroenterology and motility —2010 Volume: 22 p. 312-322; “Stress-induced changes in intestinal transit in the rat: a model for irritable bowel syndrome”, Williams C L, Villar R G, Peterson J M, Burks T F, Gastroenterology—1988 p. 611-21). Female rats were lightly anesthetized with diethyl ether and their shoulders, upper forelimbs and thoracic trunk were wrapped in a confining harness of paper tape to restrict, but not prevent body movements. Control sham-stress animals were anesthetized but not wrapped. […]
Rats were treated orally with compound A (30 mg/kg in DMSO/cremophor/isotonic saline (1:1:8 v:v:v), n=8), or vehicle only (DMSO/cremophor/isotonic saline (1:1:8 v:v:v), 1 mL, n=9) with or without 2 hour PRS sessions. The number of abdominal contractions was recorded by electromyography per 5-minute period (y axis) for each distension pressure of 0 mmHg, 15 mmHg, 30 mmHg, 45 mmHg and 60 mmHg (x axis); the ? symbols represent the results for the control+vehicle group (n=9); the symbols ? represent the results for the stress+vehicle group (n=9); the symbols ? represent the results for the stress+compound A group (n=8). Data are mean values with SEM.
Rats were treated orally with compound B (30 mg/kg in DMSO/cremophor/isotonic saline (1:1:8 v:v:v), n=9), or vehicle only (DMSO/cremophor/isotonic saline (1:1:8 v:v:v), 1 mL, n=9) with or without 2 hour PRS sessions. The number of abdominal contractions was recorded by electromyography per 5-minute period (y axis) for each distension pressure of 0 mmHg, 15 mmHg, 30 mmHg, 45 mmHg and 60 mmHg (x axis); the symbols ? represent the results for the control+vehicle group (n=9); the symbols ? represent the results for the stress+vehicle group (n=9); and the symbols ? represent the results for the stress+compound B group (n=9). Data are mean values with SEM.
The effect of FAAH inhibitor URB597 was tested at 3 mg/kg and 10 mg/kg in the PRS model of visceral hyperalgesia essentially as described in Examples 1 and 2. URB597 was formulated as a suspension in vehicle [DMSO/cremophor/isotonic saline (1:1:8 v:v:v)]. […]

[3] = test system: Male Sprague Dawley (SD) rats; assay: Cortagine-induced visceral hypersensitivity to colorectal distension; conditions: for antihyperalgesic effects in the cortagine model of visceral pain: summary statement referring to Example 3
From the text: Male Sprague Dawley (SD) rats (250-275 g, Harlan Labs, Indianapolis, Ind.) were kept under standard conditions of humidity and temperature and a 12-hour light/dark cycle (lights on 6.00 a.m.). Animals were group housed and had access to food ad libitum. Prior to the start of studies, animals were acclimatized to handling and administration of treatments (oral syringe feeding and subcutaneous injection). At the end of the experiments, animals were sacrificed by CO2 gas inhalation followed by thoracotomy or isoflurane anesthesia followed by decapitation with appropriate approved animal protocols.
On the day of the experiments, rats were injected intraperitoneally (IP) with cortagine (10 μg/kg, 0.8 ml/kg in DMSO/cremophor/isotonic saline (1:1:8 v:v:v). Cortagine, a selective corticotropin releasing factor receptor 1 (CRF1) agonist, prepared as described previously (Rivier et al. J. Med. Chem. 2007: 50:1668-1674), was stored in a powder form at −80° C. and prepared in sterile water (12.5 μg/ml) immediately before use. This dose had previously been established to show a significant increase in defecation, induction of diarrhea and increase in colonic motility, permeability and visceral pain in rats. (Larauche et al. Am. J. Physiol. Gastrointest. Liver Physiol. 2009: 297:G215-G227)
FAAH inhibitor compounds URB597 [3′-(aminocarbonyl)biphenyl-3-yl cyclohexyl carbamate], compound A and compound B were formulated as suspensions in DMSO/cremophor/isotonic saline (1:1:8 v:v:v). The concentration of the respective dosing FAAH inhibitor compound suspensions were 6 mg/ml for 30 mg/kg dose of compound A or compound B; 2 mg/ml for the 10 mg/kg dose of compound B; and 1.5 mg/ml for the 3 mg/kg dose of URB597. Compound A, compound B or vehicle treatment was administered to rats by per os (PO) route at dose-volume of 5 ml/kg. URB597 treatment was administered to rats by subcutaneous (SC) route at dose volume of 2 ml/kg. The vehicle for the PO route was DMSO/cremophor/isotonic saline (1:1:8 v:v:v). Vehicle (PO), URB597 (SC), compound A and compound B (PO) were administered to non-fasted rats, restrained by hand. The regimen of administration of URB597, compound A and compound B involved one delivery (PO or SC) performed 120 min before IP injection of cortagine.
Visceral pain was assessed using a non-invasive pressure transducer system referred to as “sensor balloon” as previously described (Larauche et al. Am. J. Physiol. Gastrointest. Liver Physiol. 2009: 297:G215-G227; Ness et al. Brain Res. 1988: 450:153-169). Briefly, in adult non-fasted SD rats, a 4-5 cm “sensor balloon” lubricated with surgical lubricant (Surgilube, Fougera, Melville) was inserted intra-anally under brief isoflurane anesthesia. The “sensor balloon” was positioned such that its distal end was 1 cm proximal to the anal verge and secured in place by tapping the balloon catheter to the tail. Rats were placed individually in Boolman's cage and allowed to recover from anesthesia and habituation. The colorectal procedure was performed using the Distender Series Ilir dual barostat (G&J Electronics Inc, Toronto, Ontario). The CRD protocol consisted of 2 CRD at 60 mmHg to unfold the balloon followed by 2 sets of CRD at 10, 20, 40 and 60 mmHg, 20 s duration, 4-min inter-stimulus interval. The intra-luminal colonic pressure (ICP) was recorded for 20 s before, during and after termination of CRD. […]

[4] = 30 mg/kg PO 2 h before cortagine
[5] = 30 mg/kg PO 2 h before cortagine 10 μg/kg IP, 40 and 60 mmHg, did not reach statistical significance
[6] = 30 mg/kg PO 2 h before cortagine, n=11
[7] = 10 mg/kg PO 2 h before cortagine, normalized to baseline VMR at 60 mmHg

Row | SMILES | basal sensitivity to colorectal distension (number of abdominal contractions per 5-minute period) [1] | abdominal contractions versus stress+vehicle control [2] | rats with increased VMR between 0 and 50% at 60 mmHg [3, 4] | rats with increased VMR between 51 and 100% at 60 mmHg [3, 4] | rats with increased VMR over 101% at 60 mmHg [3, 4] | effect on cortagine-induced visceral hypersensitivity to CRD [3, 5] | rats presenting an increased VMR over baseline (% hypersensitive rats) at 60 mmHg [3, 6] | antihyperalgesic effects in the cortagine model of visceral pain [3] | % hypersensitive rats at 40 mmHg ([3]; 10 mg/kg PO 2 h before cortagine) | effect on cortagine-induced visceral hypersensitivity to CRD ([3]; 10 mg/kg PO 2 h before cortagine 10 μg/kg IP) | rats presenting a decrease in VMR compared to baseline at 60 mmHg ([3]; 10 mg/kg PO 2 h before cortagine, n=11) | rats presenting an increased VMR over baseline (% hypersensitive rats) at 60 mmHg ([3]; 10 mg/kg PO 2 h before cortagine, n=11, all increases between 0 and 50%) | VMR to CRD at 40 mmHg [3, 7] | VMR to CRD at 60 mmHg [3, 7]
1 | COc1ccc2c(c1)c(C(=O)C(=O)Nc1cccc(Cl)c1)c(C)n2Cc1ccc(Cl)cc1 [compound A, 2-(1-(4-chlorobenzyl)-5-methoxy-2-methyl-1H-indol-3-yl)-N-(3-chlorophenyl)-2-oxoacetamide] | neither compound A nor compound B alters basal sensitivity | non-significant trend towards attenuation of abdominal contractions; also recorded: exhibit antihyperalgesic effects | 18% | 27% | 9% | trend to decrease the cortagine-induced visceral hypersensitivity; also recorded: trend to reduce cortagine-induced visceral hypersensitivity | 55% | exhibit antihyperalgesic effects |  |  |  |  |  | 
2 | COc1cc(NC(=O)C(=O)c2c(C)n(Cc3ccc(Cl)cc3)c3ccc(C)cc23)ccn1 [compound B, 2-(1-(4-chlorobenzyl)-2,5-dimethyl-1H-indol-3-yl)-N-(2-methoxypyridin-4-yl)-2-oxoacetamide] | neither compound A nor compound B alters basal sensitivity | significantly reduced abdominal contractions; also recorded: exhibit antihyperalgesic effects | 45% |  | 9% | trend to dampen the development of the visceral hypersensitivity; also recorded: trend to reduce cortagine-induced visceral hypersensitivity | 55% | exhibit antihyperalgesic effects | 36% | abolished the visceral hypersensitivity; also recorded: prevented the visceral hypersensitivity | 64% | 36% | 84.74±13.54% | 87.75±10.96%
